# Patent US9056843B2, “Trifluoromethyl-oxadiazole derivatives and their use in the treatment of disease” (NOVARTIS AG, priority 2011, dated 2015)
# What was measured:
# Format in all cases: biochemical
# Human recombinant HDAC4 = Human recombinant HDAC4 (Homo sapiens (Human), UniProt P56524); assay: Test 2: HDAC4 assay (fluorogenic substrate, 5 μM acetyl-Gly-Ala-Lys(ε-trifluoroacetyl)-AMC); settings: Test 2 (values without asterisk)
# Protocol: Test 2: HDAC4 Assay Description
# (§1) Control wells with HDAC4 only (positive control) and without HDAC4 (negative control) were included on the microplate. Bovine trypsin (4.5 μl of a 300 nM solution) was added and the plate incubated for additional 15 minutes at room temperature. The plate was placed in a fluorescence microplate reader, and read at an excitation wavelength of 360 nm and an emission wavelength of 450 nm with a 10 nm bandpath. Fluorescence values for all wells containing HDAC4 (positive control and wells with test compound) were corrected by subtracting negative control fluorescence values, and IC50 values were calculated by fitting the dose-response curves to a 4-parameter logistic function.
# [1] = target: Human recombinant full length HDAC1 (Homo sapiens (Human), UniProt Q13547); assay: Test 3: HDAC1 assay; settings: substrate 5 μM acetyl-Gly-Ala-Lys(acetyl)-AMC
# Protocol: as §1
# Test 3: HDAC1 Assay Description
# A similar assay procedure as described in Test 2 was used for HDAC1. Human recombinant full length HDAC1 expressed in a baculovirus expression system was purchased from BPS BioSciences (San Diego, Calif., U.S.A.). The substrate used in the […] assay was 5 μM of acetyl-Gly-Ala-Lys(acetyl)-AMC.
# [2] = target: Human recombinant full length HDAC6 (Homo sapiens (Human), UniProt Q9UBN7); assay: Test 4: HDAC6 assay; settings: Test 4; substrate 5 μM acetyl-Gly-Ala-Lys(acetyl)-AMC
# Protocol: as §1
# Test 4: HDAC6 Assay Description
# A similar assay procedure as described in Test 2 was used for HDAC6. Human recombinant full length HDAC6 expressed in a baculovirus expression system was purchased from BPS BioSciences (San Diego, Calif., U.S.A.). The substrate used in the […] assay was 5 μM of acetyl-Gly-Ala-Lys(acetyl)-AMC.
# Sequence of Human recombinant full length HDAC1 (Q13547 whole entry): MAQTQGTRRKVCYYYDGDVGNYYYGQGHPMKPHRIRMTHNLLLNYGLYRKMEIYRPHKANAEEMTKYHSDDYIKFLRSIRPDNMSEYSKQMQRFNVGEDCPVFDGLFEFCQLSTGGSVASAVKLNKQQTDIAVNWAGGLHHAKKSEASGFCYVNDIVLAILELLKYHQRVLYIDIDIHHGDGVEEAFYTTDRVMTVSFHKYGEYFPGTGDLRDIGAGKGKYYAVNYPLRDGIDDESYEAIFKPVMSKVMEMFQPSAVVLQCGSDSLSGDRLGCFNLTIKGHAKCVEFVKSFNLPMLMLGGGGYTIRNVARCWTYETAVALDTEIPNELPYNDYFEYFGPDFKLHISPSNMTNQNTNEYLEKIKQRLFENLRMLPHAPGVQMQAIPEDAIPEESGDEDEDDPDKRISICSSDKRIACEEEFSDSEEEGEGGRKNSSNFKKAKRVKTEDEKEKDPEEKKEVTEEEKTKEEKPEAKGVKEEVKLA
# Sequence of Human recombinant full length HDAC6 (Q9UBN7 whole entry): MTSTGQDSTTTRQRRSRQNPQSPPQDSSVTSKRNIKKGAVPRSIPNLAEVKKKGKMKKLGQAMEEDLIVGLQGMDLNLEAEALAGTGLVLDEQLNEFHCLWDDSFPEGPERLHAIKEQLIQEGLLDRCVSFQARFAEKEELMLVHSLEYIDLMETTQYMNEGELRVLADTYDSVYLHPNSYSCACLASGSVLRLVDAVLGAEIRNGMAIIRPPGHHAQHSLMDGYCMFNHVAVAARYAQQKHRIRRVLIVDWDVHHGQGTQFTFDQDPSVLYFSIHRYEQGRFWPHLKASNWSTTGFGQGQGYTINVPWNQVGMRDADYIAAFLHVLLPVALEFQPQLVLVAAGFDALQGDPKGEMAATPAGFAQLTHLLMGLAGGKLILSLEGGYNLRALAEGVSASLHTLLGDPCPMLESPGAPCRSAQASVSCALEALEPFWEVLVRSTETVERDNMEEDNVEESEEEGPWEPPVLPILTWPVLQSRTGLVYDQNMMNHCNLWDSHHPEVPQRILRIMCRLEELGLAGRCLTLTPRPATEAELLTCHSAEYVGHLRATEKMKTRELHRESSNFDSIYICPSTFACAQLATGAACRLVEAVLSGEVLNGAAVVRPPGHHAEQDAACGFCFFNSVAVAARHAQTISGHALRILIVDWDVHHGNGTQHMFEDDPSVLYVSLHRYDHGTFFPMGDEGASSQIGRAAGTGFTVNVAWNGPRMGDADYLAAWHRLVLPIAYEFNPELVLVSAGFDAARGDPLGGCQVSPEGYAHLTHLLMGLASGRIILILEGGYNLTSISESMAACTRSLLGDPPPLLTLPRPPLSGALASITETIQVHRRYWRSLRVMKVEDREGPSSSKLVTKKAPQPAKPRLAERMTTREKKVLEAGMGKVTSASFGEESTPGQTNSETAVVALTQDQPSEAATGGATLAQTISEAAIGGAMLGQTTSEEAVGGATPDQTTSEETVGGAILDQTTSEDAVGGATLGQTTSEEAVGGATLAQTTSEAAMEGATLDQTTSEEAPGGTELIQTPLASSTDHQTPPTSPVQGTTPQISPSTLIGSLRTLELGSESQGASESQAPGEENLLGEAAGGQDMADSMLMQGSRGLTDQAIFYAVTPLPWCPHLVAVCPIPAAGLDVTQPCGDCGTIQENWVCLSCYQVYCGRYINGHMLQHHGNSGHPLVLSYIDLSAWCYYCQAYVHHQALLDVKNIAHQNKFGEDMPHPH
# Sequence of Human recombinant HDAC4 (P56524 2-1084): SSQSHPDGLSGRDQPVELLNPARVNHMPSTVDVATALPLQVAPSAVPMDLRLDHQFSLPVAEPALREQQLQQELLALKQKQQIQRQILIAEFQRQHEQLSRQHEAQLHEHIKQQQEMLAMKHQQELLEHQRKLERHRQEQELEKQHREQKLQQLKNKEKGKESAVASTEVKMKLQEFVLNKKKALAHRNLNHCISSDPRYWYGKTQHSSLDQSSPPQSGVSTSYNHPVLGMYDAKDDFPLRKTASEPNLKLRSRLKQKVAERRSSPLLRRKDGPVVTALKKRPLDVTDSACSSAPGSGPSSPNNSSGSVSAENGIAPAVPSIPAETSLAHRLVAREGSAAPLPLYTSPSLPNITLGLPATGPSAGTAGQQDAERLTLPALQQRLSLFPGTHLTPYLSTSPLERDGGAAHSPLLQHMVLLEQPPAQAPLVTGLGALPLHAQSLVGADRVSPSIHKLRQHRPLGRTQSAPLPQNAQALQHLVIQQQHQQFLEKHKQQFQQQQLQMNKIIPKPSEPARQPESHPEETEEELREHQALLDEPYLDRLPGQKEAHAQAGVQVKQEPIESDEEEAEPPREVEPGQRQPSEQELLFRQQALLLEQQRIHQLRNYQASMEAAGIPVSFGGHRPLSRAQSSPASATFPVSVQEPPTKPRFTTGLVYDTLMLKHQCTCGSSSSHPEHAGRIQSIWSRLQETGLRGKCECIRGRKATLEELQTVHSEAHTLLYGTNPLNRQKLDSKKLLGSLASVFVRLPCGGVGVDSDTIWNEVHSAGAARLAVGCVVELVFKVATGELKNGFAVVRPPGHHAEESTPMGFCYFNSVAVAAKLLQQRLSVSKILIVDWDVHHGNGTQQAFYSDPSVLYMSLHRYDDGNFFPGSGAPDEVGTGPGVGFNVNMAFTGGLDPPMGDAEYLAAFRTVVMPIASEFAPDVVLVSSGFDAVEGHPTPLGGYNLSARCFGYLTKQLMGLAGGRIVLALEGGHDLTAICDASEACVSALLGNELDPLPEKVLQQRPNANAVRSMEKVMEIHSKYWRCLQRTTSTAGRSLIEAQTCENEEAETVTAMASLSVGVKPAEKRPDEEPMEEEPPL
SMILES,IC50 (Human recombinant HDAC4),IC50 [1],IC50 [2]
"O=C(NC1CCC1)c1ccc(-c2noc(C(F)(F)F)n2)cc1 [Example 25, N-cyclobutyl-4-(5-(trifluoromethyl)-1,2,4-oxadiazol-3-yl)benzamide]",0.47 µM,> 10 µM,6.5 µM
"O=C(N[C@@H]1CCNC1)c1ccc(-c2noc(C(F)(F)F)n2)cc1F [Example 95, (R)-2-fluoro-N-(pyyrrolidin-3-yl)-4-(5-(trifluoromethyl)-1,2,4-oxadiazol-3-yl)benzamide]",0.16 µM,> 10 µM,6.9 µM
"O=C(NC1CCNCC1)c1ccc(-c2noc(C(F)(F)F)n2)cc1 [Example 76, N-(piperidin-4-yl)-4-(5-(trifluoromethyl)-1,2,4-oxadiazol-3-yl)benzamide]",0.15 µM,> 10 µM,3.9 µM
"O=C(NCCc1ccccc1)c1ccc(-c2noc(C(F)(F)F)n2)cc1 [Example 45, N-phenethyl-4-(5-(trifluoromethyl)-1,2,4-oxadiazol-3-yl)benzamide]",4.2 µM,> 10 µM,> 10 µM
"CON(C)C(=O)Cc1ccc(-c2noc(C(F)(F)F)n2)cc1 [Example 11, N-methoxy-N-methyl-2-(4-(5-(trifluoromethyl)-1,2,4-oxadiazol-3-yl)phenvyl)acetamide]",1.1 µM,> 10 µM,8.9 µM
"CC(C)(C)OC(=O)N1CCC(NC(=O)c2ccc(-c3noc(C(F)(F)F)n3)cc2)CC1 [Example 59, 4-[4-(5-trifluoromethyl-[1,2,4]oxadiazol-3-yl)-benzoylamino]-piperidine-1-carboxylic acid tert-butyl ester]",1.4 µM,> 10 µM,> 10 µM
"COCCCNC(=O)c1ccc(-c2noc(C(F)(F)F)n2)cc1 [Example 21, N-(3-methoxyypropyl)-4-(5-(trifluoromethyl)-1,2,4-oxadiazol-3-yl)benzamide]",0.73 µM,> 10 µM,5.7 µM
"CN1CCN(C(=O)Cc2ccc(-c3noc(C(F)(F)F)n3)cc2)CC1 [Example 10, 1-(4-methylpiperazin-1-yl)-2-(4-(5-(trifluoromethyl)-1,2,4-oxadiazol-3-yl)phenvyl)ethanone]",1.3 µM,> 10 µM,5.6 µM
"O=S(=O)(NCCCO)c1ccc(-c2noc(C(F)(F)F)n2)cc1 [Example 116, N-(3-hydroxypropyl)-4-(5-(trifluoromethyl)-1,2,4-oxadiazol-3-yl)benzenesulfonamide]",0.16 µM,> 10 µM,3.1 µM
"CCC(CC)NC(=O)c1ccc(-c2noc(C(F)(F)F)n2)cc1 [Example 30, N-(pentan-3-yl)-4-(5-(trifluoromethyl)-1,2,4-oxadiazol-3-yl)benzamide]",6.4 µM,> 10 µM,> 10 µM
"CN(C)CCNS(=O)(=O)c1ccc(-c2noc(C(F)(F)F)n2)cc1 [Example 98, N-(2-(dimethylamino)ethyl)-4-(5-(trifluoromethyl)-1,2,4-oxadiazol-3-yl)benzenesulfonamide]",0.36 µM,> 10 µM,6.4 µM
"C[C@H](CN1CCCC1)NC(=O)c1ccc(-c2noc(C(F)(F)F)n2)cc1F [Example 128, (R)-2-fluoro-N-(1-(pyrrolidin-1-yl)propan-2-yl)-4-(5-(trifluoromethyl)-1,2,4-oxadiazol-3-yl)benzamide]",0.026 µM,> 10 µM,4.5 µM
"O=C(NC1CCCNC1)c1ccc(-c2noc(C(F)(F)F)n2)cc1 (stereo not drawn) [Example 79, N-(piperidin-3-yl)-4-(5-(trifluoromethyl)-1,2,4-oxadiazol-3-yl)benzamide]",0.8 µM,> 10 µM,> 10 µM
"CCN(CC)C[C@@H](C)NC(=O)c1ccc(-c2noc(C(F)(F)F)n2)cc1F [Example 126, (R)—N-(1-(diethylamino)propan-2-yl)-2-fluoro-4-(5-(trifluoromethyl)-1,2,4-oxadiazol-3-yl)benzamide]",0.0089 µM,> 10 µM,3.9 µM
"C[C@H](CN1CCOCC1)NC(=O)c1ccc(-c2noc(C(F)(F)F)n2)cc1F [Example 148, (R)-2-fluoro-N-(1-morpholinopropan-2-yl)-4-(5-(trifluoromethyl)-1,2,4-oxadiazol-3-yl)benzamide]",0.38 µM,> 10 µM,3.2 µM
"C[C@@H](CO)NC(=O)c1ccc(-c2noc(C(F)(F)F)n2)cc1 [Example 50, (S)—N-(1-hydroxyypropan-2-yl)-4-(5-(trifluoromethyl)-1,2,4-oxadiazol-3-yl)benzamide]",0.62 µM,> 10 µM,7.2 µM

SMILES,IC50 (Human recombinant HDAC4),IC50 [1],IC50 [2]
"NC1CCCCC1NC(=O)c1ccc(-c2noc(C(F)(F)F)n2)cc1 (stereo not drawn) [Example 77, N-(2-aminocyclohexyl)-4-(5-(trifluoromethyl)-1,2,4-oxadiazol-3-yl)benzamide]",0.35 µM,> 10 µM,> 10 µM
"CCCCNC(=O)Cc1ccc(-c2noc(C(F)(F)F)n2)cc1 [Example 6, N-butyl-2-(4-(5-(trifluoromethyl)-1,2,4-oxadiazol-3-yl)phenyl)acetamide]",0.63 µM,> 10 µM,3.2 µM
"Cc1ccc(NS(=O)(=O)c2ccc(-c3noc(C(F)(F)F)n3)cc2)cc1 [Example 108, N-p-tolyl-4-(5-(trifluoromethyl)-1,2,4-oxadiazol-3-yl)benzenesulfonamide]",0.093 µM,5 µM,0.74 µM
"O=C(NC1CCCCC1)c1ccc(-c2noc(C(F)(F)F)n2)cc1 [Example 34, N-cyclohexyl-4-(5-(trifluoromethyl)-1,2,4-oxadiazol-3-yl)benzamide]",0.75 µM,> 10 µM,> 10 µM
"CCCN(CC)C[C@@H](C)NC(=O)c1ccc(-c2noc(C(F)(F)F)n2)cc1F [Example 146, (R)—N-(1-(ethyl(propyl)amino)propan-2-yl)-2-fluoro-4-(5-(trifluoromethyl)-1,2,4-oxadiazol-3-yl)benzamide]",0.0016 µM,5.1 µM,2.4 µM
"Cc1cc(NC(=O)c2ccc(-c3noc(C(F)(F)F)n3)cc2)cc(C)n1 [Example 68, N-(2,6-dimethylpyridin-4-yl)-4-(5-(trifluoromethyl)-1,2,4-oxadiazol-3-yl)benzamide]",0.17 µM,> 10 µM,5.3 µM
"O=C(Nc1ccccc1)c1ccc(-c2noc(C(F)(F)F)n2)cc1 [Example 35, N-phenyl-4-(5-(trifluoromethyl)-1,2,4-oxadiazol-3-yl)benzamide]",6.7 µM,> 10 µM,> 10 µM
"CC(C)(C)OC(=O)N1CCC(NC(=O)c2ccc(-c3noc(C(F)(F)F)n3)cc2)C1 (stereo not drawn) [Example 66, Tert-butyl 3-(4-(5-(trifluoromethyl)-1,2,4-oxadiazol-3-yl)benzamido)pyrrolidine-1-carboxylate]",0.33 µM,> 10 µM,5.8 µM
"CC(C)CNC(=O)c1ccc(-c2noc(C(F)(F)F)n2)cc1 [Example 27, N-isobutyl-4-(5-(trifluoromethyl)-1,2,4-oxadiazol-3-yl)benzamide]",1.2 µM,> 10 µM,> 10 µM
"CN(C)CCNC(=O)c1ccc(-c2noc(C(F)(F)F)n2)cc1 [Example 31, N-(2-(dimethylamino)ethyl)-4-(5-(trifluoromethyl)-1,2,4-oxadiazol-3-yl)benzamide]",0.08 µM,7.6 µM,7.05 µM
"CCN(C)C(=O)c1ccc(-c2noc(C(F)(F)F)n2)cc1 [Example 14, N-ethyl-N-methyl-4-(5-(trifluoromethyl)-1,2,4-oxadiazol-3-yl)benzamide]",0.9 µM,> 10 µM,> 10 µM
"CC(C)N(C)C[C@@H](C)NC(=O)c1ccc(-c2noc(C(F)(F)F)n2)cc1F [Example 142, (R)-2-fluoro-N-(1-(isopropyl(methyl)amino)propan-2-yl)-4-(5-(trifluoromethyl)-1,2,4-oxadiazol-3-yl)benzamide]",0.0072 µM,> 10 µM,5.4 µM
"CCNC(=O)c1ccc(-c2noc(C(F)(F)F)n2)cc1 [Example 12, N-ethyl-4-(5-(trifluoromethyl)-1,2,4-oxadiazol-3-yl)benzamide]",0.43 µM,> 10 µM,4.1 µM
"Cc1cc(NC(=O)c2ccc(-c3noc(C(F)(F)F)n3)cc2F)cc(C)n1 [Example 90, N-(2,6-dimethylpyridin-4-yl)-2-fluoro-4-(5-(trifluoromethyl)-1,2,4-oxadiazol-3-yl)benzamide]",0.44 µM,> 10 µM,2.5 µM
"O=C(c1ccc(-c2noc(C(F)(F)F)n2)cc1)N1CCCCC1 [Example 33, Piperidin-1-yl(4-(5-(trifluoromethyl)-1,2,4-oxadiazol-3-yl)phenyl)methanone]",0.4 µM,> 10 µM,> 10 µM
